Test results published in patent US20260266837A1, “Methods for Cancer Recurrence Detection and Treatment Thereof” (Institut Curie, priority 2022, published 2026).

Test system: MDA-MB-468 cells, persister genes
Test: scRNA-seq expression changes induced by EZH2i-1 in the absence of chemotherapy
Assay type: cell-based, human
Description: Cell lines, culture conditions and drug treatments. MDA-MB-468 cells were cultured in DMEM (Gibco-BRL, Ref: 11966025), supplemented with 10% heat-inactivated fetal calf serum (Gibco-BRL, Ref: 10270-106). HCC38 and BT20 cell lines were cultured in RPMI 1640 (Gibco-BRL, Ref: 11875085), supplemented with 10% heat-inactivated fetal calf serum. […] Cells were treated with 5 μM of 5-FU (Sigma, Ref: F6627) alone or in combination with KDM6A/Bi or EZH2i for indicated days. For EZH2i, cells were pretreated with UNC 1999, UNC 2400 or GSK 126 for 10 days before the addition of 5-FU for an additional 21 days (FIG. 4 and Extended FIG. 8).
Single-cell RNA-seq. For each single cell suspension (DMSO-DO- #1, 5-FU-D33- #1, 5-FU-D214- #1, 5-FU-D67- #2, 5-FU-D171- #2, 5-FU-D50- #3, 5-FU-D77- #3 and 5-FU-D202- #3) or PDX dissociated cells (PDX_95, PDX_39 or PDX_172, untreated and persister cells), approximately 3,000 cells were loaded on a Chromium Single Cell Controller Instrument (Chromium Single Cell 3′v3, 10× Genomics, Ref: PN-1000075) according to the manufacturer's instructions. Samples and libraries were prepared according to the manufacturer's instructions. Libraries were sequenced on a NovaSeq 6000 (Illumina) in PE 28-8-91 with a coverage of 50,000 reads/cell.
Single-cell RNA-seq analysis. The scRNA-seq sequencing files were preprocessed using the cellRanger pipeline. For PDX samples, files were aligned against hg19 and mm10 genomes and only cells with a majority of human reads were retained for the analysis. For the MDA-MB-468 human cell line, sequences were aligned against the hg38 genome only. Cells with less than 3,000 […] for MDA-MB-468 or 2,500 for PDX or more than 8,000 detected genes, or more than 100,000 reads were filtered out, as well as cells with a percent of mitochondrial reads greater than 15% or a percentage of spike in greater than 5%. Normalization, dimensionality reduction and Louvain clustering was done using monocle3 (v0.2.2)^52 keeping the first 50 Principal Components (PC). Cell cycle was determined for each cell using Seurat (v3.1.5)^53. […] Differentially expressed genes were obtained by comparing raw gene expression values using edgeR GLM statistical model^54. […] For MDA-MB-468 samples, as the number of cells was high, a subset of 500 cells per cluster was subsampled from each cluster for the differential analysis and downstream steps. Intra-cluster correlation scores were calculated using Pearson's correlation score, with a random subsampling of n=500 cells per cluster.

activation of persister genes with depletion of H3K27me3 upon 5-FU treatment (23/37 genes, no chemotherapy): 62%
Compound: CCCc1cc(C)[nH]c(=O)c1CNC(=O)c1cc(-c2ccc(N3CCN(C(C)C)CC3)nc2)cc2c1cnn2C(C)C [EZH2i-1]
over-expression of persister genes independently of any H3K27me3 enrichment in untreated cells (78/131 genes, no chemotherapy): 60% | expression of candidate master TFs FOXQ1, FOSL1 and N 2RF2 (EZH2i-1 treatment): re-expressed by EZH2i-1 treatment | Pearson correlation of expression fold-changes induced by EZH2i-1 with those induced by chemotherapy in persister cells (early time points, D33 versus D0): 0.71 | Pearson correlation of expression fold-changes induced by EZH2i-1 with changes in resistant cells (resistant cells): 0.31
